pIC50: −log10 of the molar value. Read-outs that look alike come from different tables or passages of the source. One block for each compound: values may come before it.
Key:
[1] = system: biomolecular targets known to be associated with common negative side effects of pharmaceuticals in humans; experiment: In vitro secondary pharmacology panels, all targets of the two panels (31 dose-response + 78 single concentration); type: biochemical; conditions: percentage of targets hit among all targets tested in the two secondary pharmacology panels
Protocol: The purpose of this study was to assess the toxicity risk estimation provided by the Cell Health Screen relative to information from panels of in vitro pharmacology assays that were also designed to detect toxicity risk during pharmaceutical development. This study was performed with outside collaborators who have expertise in the use of the in vitro pharmacology assays. These in vitro assay panels detect whether chemical compounds directly interact with biomolecular targets known to be associated with toxic side effects in humans (mostly enzymes, cell surface receptors, and other proteins that participate in signaling pathways) (Pottel et al., 2020). […] As such, the interpretation process is somewhat subjective. In contrast, the Cell Health Screen uses a feature extraction and ML classifier strategy described above, to reduce all cellular phenotypic changes caused by a chemical compound to a single probability value, from 0 to 1. This is a quantitative toxicity risk estimation relative to a training set of compounds used to train the ML classifier. Therefore, comparing results from the Cell Health Screen to the in vitro pharmacology panels is a matter of comparing the trend in ML classifier probability values, across all 40 excipients, with their relative degrees of promiscuity and target interaction potency observed in the in vitro pharmacology panels.
(§1) For a detailed description of our collaborators' in vitro pharmacology assay panels, please see the publication by Pottel et al. (Pottel et al., 2020). Briefly, each in vitro assay focuses on one biomolecular target known to be associated with common negative side effects of pharmaceuticals in humans. These targets are generally enzymes, cell surface receptors, or other proteins that mediate cell signal transduction. In one assay panel, chemical compound interaction is assessed for 31 biomolecular targets in a dose-response fashion, which assesses compound-target interaction strength expressed as an IC50 and an activity range (unless no interaction happens).
Here we present two summarized versions of the study results. […] For the biological endpoints, the abbreviation key is as follows: CM=cell morphology, CMI=cell membrane integrity, ROS=reactive oxygen species, GTH=glutathione, NMI1=nuclear membrane integrity 1, CC=cell cycle, NMI2=nuclear membrane integrity 2, MMP=mitochondrial membrane potential. […] This is the percentage of all biomolecular targets for which an effect was observed, for each excipient. The THR value serves as an expression of an excipient's promiscuity with regard to binding biomolecular targets known to associate with toxic side effects in humans.

HL60 cells = experiment: AsedaSciences SYSTEMETRIC Cell Health Screen (multiparametric acute cell stress assay, flow cytometry, ML classifier); conditions: probability (0 to 1) of assignment to the 'yes' high cell stress class; HL60, 4 hours, 5 nM-100 μM
Description: The Cell Health Screen is a multiparametric acute cell stress assay, using a panel of fluorescent physiological reporting dyes, on an automated flow cytometry platform. Rather than simply producing dose-response curves for all individual biological readouts, features are generated by computing custom-defined distance functions between test and control wells. All test compounds are represented as feature vectors, after which the analysis algorithm employs a logistic regression model to classify test compounds relative to a training set. This machine learning (ML) approach integrates all measured readouts into a single predictive statistical model. […] This training set empirically covers the full range of possible phenotypes in the Cell Health Screen, from no-response to acute stress, with sufficient representation across the spectrum. Training set compounds were assigned to binary classes (“yes”=expectation of high cell stress or “positive” phenotype; “no”=no expectation of positive phenotype). This externally established ground-truth was based upon manually curated information from research literature and, where applicable, clinical trial results and commercial/regulatory histories.
For an unknown test compound, the ML classifier uses all the FC parameter features describing compound response, simultaneously, to predict the final assignment. This is achieved by calculating the probability of assigning that compound's screen phenotype to the “yes” class defined by the training set. By specifying the problem as a classification challenge, the data analysis pipeline assures that any apparent lack of coordinated change among biological readouts presents no interpretation challenge. All phenotypic data are treated simply as input features to a statistical model. In contrast, many conventional flow cytometry assays require strict mechanistic interpretation of every measured biological readout. often resulting in conflicting conclusions (e.g. if reactive oxygen species increase, but glutathione is unaffected, which should be “believed”?). The final probability score, or Cell Health Index, is a quantitative assessment of a multiparametric phenotype's similarity to a diverse set of known good and bad actors. Finally, choosing HL60 as our reporter cell line means that the screen is explicitly designed not to detect instances in which a parent compound only causes cellular toxicity via metabolites.
In a 384-well platform. HL60 cells are exposed to a 10-step, 3× dilution series of each test compound (5 nM-100 μM) for 4 hours at 37° C. with 5% CO2. Each dilution series is screened in duplicate, occupying a total of 20 wells, allowing 16 test compounds to be assayed on each plate. Each row contains one positive and one negative control well, for a total of 16 matched control pairs on each assay plate. Compound formatting, cell deposition, and dye application are performed robotically, so that final assay conditions comprise 100,000 cells in a 40 μl volume. After compound exposure, live cells are rapidly stained with a panel of fluorescent dyes that report physiological signatures of both mitochondrial dysfunction and gross cell stress. Fluorescence data are collected using automated flow cytometry with no gating. […] Well-specific flow cytometry data files, with an accompanying map of well contents, are moved to cloud infrastructure where the automated algorithm for quality control and ML classification is triggered. […]

31 biomolecular targets = experiment: In vitro pharmacology panel of 31 biomolecular targets, dose-response; type: biochemical; conditions: for pIC50: read-out: Avg potency
Protocol: as §1
These last two features are derived from the first panel of 31 biomolecular targets, which are assayed using a concentration series of each excipient to produce a dose-response curve.

[2] = average concentration of the IC50 values from dose-response results, panel of 31 targets
[3] = first panel of 31 biomolecular targets, concentration series

Compound: CC(C)(C)CC(C)(C)c1ccc(OCCOCC[N+](C)(C)Cc2ccccc2)cc1 [Benzethonium chloride]
Overall target hit rate [1]: 51%

Compound: O=C([O-])c1c(Cl)c(Cl)c(Cl)c(Cl)c1-c1c2cc(Br)c(=O)c(Br)c-2oc2c(Br)c([O-])c(Br)cc12.[Na+].[Na+] [D&C Red #28, Phloxine B]
CHI score (Cell Health Index) (HL60 cells): 0.637
Overall target hit rate [1]: 55%
Activity range (31 biomolecular targets; [3]): 0.13 to 28 µM
pIC50 (31 biomolecular targets): 5.00

Compound: CC(=O)[O-].[Hg+][c]1ccccc1 [Phenylmercuric acetate]
CHI score (Cell Health Index) (HL60 cells): 0.955
Overall target hit rate [1]: 58%
Activity range (31 biomolecular targets): 0.02 to 22 µM
pIC50 (31 biomolecular targets): 5.30

Compound: CCCOC(=O)c1cc(O)c(O)c(O)c1 [Propyl gallate]
Overall target hit rate [1]: 3%
pIC50 (31 biomolecular targets; [2]): 5.14
Activity range (31 biomolecular targets; [3]): 0.015 to 7.2 µM

Compound: C[CH2][Hg][S]c1ccccc1C(=O)[O-].[Na+] [Thimerosal]
CHI score (Cell Health Index) (HL60 cells): 0.936
Overall target hit rate [1]: 17%
Activity range (31 biomolecular targets): 0.32 to 30 µM
pIC50 (31 biomolecular targets): 4.82

Compound: Polysorbate 80
CHI score (Cell Health Index) (HL60 cells): 0.422
Overall target hit rate [1]: 13%
Activity range (31 biomolecular targets; [3]): 1.0 to 21 µM
pIC50 (31 biomolecular targets): 4.97

More lines, main results first:

CHI score (Cell Health Index) (HL60 cells): 0.349
pIC50 (31 biomolecular targets; [2]): 4.92
Compound: Cc1cc(O)cc(C)c1Cl [Chloroxylenol, 4-chloro-3,5-dimethylphenol]
Overall target hit rate [1]: 6%
Activity range (31 biomolecular targets; [3]): 10 to 14 µM

pIC50 (31 biomolecular targets; [2]): 5.24
Compound: O=C1OC2(c3ccccc31)c1cc(I)c(O)c(I)c1Oc1c2cc(I)c(O)c1I [FD&C Red #3, Erythrosine extra bluish]
Overall target hit rate [1]: 48%
Activity range (31 biomolecular targets; [3]): 0.09 to 25 µM

pIC50 (31 biomolecular targets; [2]): 5.19
Compound: CN(C)c1ccc2nc3ccc(=[N+](C)C)cc-3sc2c1 [Methylene blue hydrate]
Overall target hit rate [1]: 48%
Activity range (31 biomolecular targets; [3]): 0.04 to 24 µM

pIC50 (31 biomolecular targets; [2]): 4.71
Compound: CCCOC(=O)c1ccc(O)cc1 [Propylparaben]
Overall target hit rate [1]: 3%
Activity range (31 biomolecular targets; [3]): 11 to 24 µM
